In patent US10293148B2, “System, retainer and method of preventing and treating nosocomial infections including methicillin-resistant Staphylococcus aureus infections” (priority 2017, dated 2019):

Tested on: S. epidermidis ATCC 12228
Test: ASTM E1153 sanitizer test on inoculated glass carriers
Format: cell-based, staphylococcus epidermidis
Procedure: As used herein, “CFU” refers to “colony forming unit;” the term “Log Reduction” means Log(B/A), where B=the colony form unit (CFU) number of viable test microorganisms on the control carriers after the contact time and A=the colony form unit (CFU) number of viable test microorganisms on the test carriers after the contact time. All log numbers are base-10 logarithms. […] The experiment was conducted pursuant to the American Society for Testing and Materials (ASTM) E1153, a quantitative test method designed to substantiate sanitizer claims for disinfectants on inanimate, non-porous, non-food contact surfaces. […] The commercial acne products were categorized based on their identified disinfecting ingredient. The representative test microorganism used to conduct the study was staphylococcus epidermidis (“S. epidermidis”). S. epidermidis is a gram-positive, cocci-shaped, facultative anaerobe, living mainly on the skin's surface and mucosa. S. epidermidis is one of the most common organisms contributing to nosocomial infections due to the increase in medical usage of biomaterials. Specifically, S. epidermidis infections are associated with intravascular devices (prosthetic heart valves, shunts, etc.), prosthetic joints, catheters, and postoperative wounds and the urinary tract. […] The ASTM […] protocol includes growing the test microorganism in a liquid culture medium. A series of hard, non-porous glass slides (“carriers”) are inoculated with the representative test microorganisms, and subsequently dried in an incubator. ASTM […] utilizes non-antimicrobial agents as controls to establish baselines for microbial reductions. For this study, each inoculation area was kept to a 10 mm circle to match the output tip of the […] light source. Once completely dried, the inoculated test carriers were treated with the test substances and incubated for the predetermined contact time. […] Each […] light source was set to the high power setting for testing. Control carriers were treated with a buffered saline solution and allowed to sit for the predetermined contact time. At the conclusion of the contact time, treated carriers were transferred to vessels containing neutralizing media. Dilutions of the neutralized test substance were assayed for microbial survivors using appropriate growth media. To determine microbial reduction, the effect of the test substance is compared to the effect of the control substance. […] The percent reduction is determined by evaluating the number of microorganisms on the control carriers after the contact time with the number of viable microorganisms on the test carriers after contact time.

[1] = stand-alone, no light, contact time 10 Seconds, Initial Numbers 1.4E+05
[2] = stand-alone, no light, contact time 20 Seconds, Initial Numbers 1.4E+05
[3] = stand-alone, no light, contact time 30 Seconds, Initial Numbers 1.4E+05
[4] = with Synederm Light (385-515 nm), contact time 10 Seconds, Numbers Control 2.97E+05
[5] = with Synederm Light (385-515 nm), contact time 30 Seconds, Numbers Control 2.97E+05
[6] = with Synederm Light (385-515 nm), contact time 60 Seconds, Numbers Control 2.97E+05
[7] = with Synederm Light (420-480 nm), contact time 10 Seconds, Numbers Control 2.97E+05
[8] = with Synederm Light (420-480 nm), contact time 30 Seconds, Numbers Control 2.97E+05
[9] = with Synederm Light (420-480 nm), contact time 60 Seconds, Numbers Control 2.97E+05
[10] = with Synederm Light (385-515 nm), contact time 10 Seconds, Numbers Control 2.97E+05, listed as 3.0% Hydrogen Peroxide
[11] = with Synederm Light (385-515 nm), contact time 30 Seconds, Numbers Control 2.97E+05, listed as 3.0% Hydrogen Peroxide
[12] = with Synederm Light (385-515 nm), contact time 60 Seconds, Numbers Control 2.97E+05, listed as 3.0% Hydrogen Peroxide
[13] = with Synederm Light (420-480 nm), contact time 10 Seconds, Numbers Control 2.97E+05, listed as 3.0% Hydrogen Peroxide
[14] = with Synederm Light (420-480 nm), contact time 30 Seconds, Numbers Control 2.97E+05, listed as 3.0% Hydrogen Peroxide
[15] = with Synederm Light (420-480 nm), contact time 60 Seconds, Numbers Control 2.97E+05, listed as 3.0% Hydrogen Peroxide

OO [0.3% Hydrogen Peroxide, hydrogen peroxide]
CFU/Carrier [1]: 8.3E+04 CFU/Carrier | Log10 Reduction Compared to Control [1]: 0.23 Log10 | Percent Reduction Compared to Control [1]: 40.7% | CFU/Carrier [2]: 7.50E+04 CFU/Carrier | Log10 Reduction Compared to Control [2]: 0.27 Log10 | Percent Reduction Compared to Control [2]: 46.4% | CFU/Carrier [3]: 1.20E+05 CFU/Carrier | Log10 Reduction Compared to Control [3]: 0.07 Log10 | Percent Reduction Compared to Control [3]: 14.3% | CFU/Carrier [4]: 7.58E+4 CFU/Carrier | Log10 Reduction Compared to Control [4]: 0.59 Log10 | Percent Reduction Compared to Control [4]: 74.4% | CFU/Carrier [5]: 3.66E+04 CFU/Carrier | Log10 Reduction Compared to Control [5]: 0.91 Log10 | Percent Reduction Compared to Control [5]: 87.7% | CFU/Carrier [6]: 9.10E+03 CFU/Carrier | Log10 Reduction Compared to Control [6]: 1.51 Log10 | Percent Reduction Compared to Control [6]: 96.9% | CFU/Carrier [7]: 1.30E+05 CFU/Carrier | Log10 Reduction Compared to Control [7]: 0.36 Log10 | Percent Reduction Compared to Control [7]: 56.2% | CFU/Carrier [8]: 1.30E+05 CFU/Carrier | Log10 Reduction Compared to Control [8]: 0.36 Log10 | Percent Reduction Compared to Control [8]: 56.3% | CFU/Carrier [9]: 2.28E+04 CFU/Carrier | Log10 Reduction Compared to Control [9]: 1.11 Log10 | Percent Reduction Compared to Control [9]: 92.3%

OO [3% Hydrogen Peroxide, hydrogen peroxide]
CFU/Carrier [1]: 7.50E+04 CFU/Carrier | Log10 Reduction Compared to Control [1]: 0.27 Log10 | Percent Reduction Compared to Control [1]: 46.4% | CFU/Carrier [2]: 8.00E+04 CFU/Carrier | Log10 Reduction Compared to Control [2]: 0.24 Log10 | Percent Reduction Compared to Control [2]: 42.9% | CFU/Carrier [3]: 6.30E+04 CFU/Carrier | Log10 Reduction Compared to Control [3]: 0.35 Log10 | Percent Reduction Compared to Control [3]: 55% | CFU/Carrier [10]: 5.80E+04 CFU/Carrier | Log10 Reduction Compared to Control [10]: 0.71 Log10 | Percent Reduction Compared to Control [10]: 80.4% | CFU/Carrier [11]: 1.34E+03 CFU/Carrier | Log10 Reduction Compared to Control [11]: 2.34 Log10 | Percent Reduction Compared to Control [11]: 99.5% | CFU/Carrier [12]: <1.00E+01 CFU/Carrier | Log10 Reduction Compared to Control [12]: >4.55 Log10 | Percent Reduction Compared to Control [12]: >99.997% | CFU/Carrier [13]: 2.19E+04 CFU/Carrier | Log10 Reduction Compared to Control [13]: 1.13 Log10 | Percent Reduction Compared to Control [13]: 92.6% | CFU/Carrier [14]: 6.20E+03 CFU/Carrier | Log10 Reduction Compared to Control [14]: 1.68 Log10 | Percent Reduction Compared to Control [14]: 97.9% | CFU/Carrier [15]: <1.00E+01 CFU/Carrier | Log10 Reduction Compared to Control [15]: >4.55 Log10 | Percent Reduction Compared to Control [15]: >99.997% | ASTM International passing criteria (3 Log10 or 99.9% reduction) (with Synederm light (385-515nm) for 60 seconds): satisfied the ASTM International passing criteria | ASTM International passing criteria (3 Log10 or 99.9% reduction) (with Synederm light (420-480nm) for 60 seconds): satisfied the ASTM International passing criteria
